From patent US20260345517A1, “DOSAGE REGIMENS FOR TREATING STARGARDT DISEASE” (Alkeus Pharmaceuticals, Inc., priority 2024, published 2026)
“Also recorded” adds a separate entry of the source.

Experiments:
Format in all cases: in vivo, human
[1] = tested on: Stargardt disease patients; assay: TEASE-1: growth rate of atrophic retinal lesions by fundus autofluorescence imaging; parameters: Percentage Slowing of Atrophic Retinal Lesion Growth Rate With Gildeuretinol Acetate: concentration or dose not given beside the values; details: for effect on retinal degeneration / growth of atrophic retinal lesions (in words): 14 to 24 mg daily, up to 24 months, vs placebo and natural history
Experimental: The Tolerability and Effects of gildeuretinol acetate in Stargardt Disease (Clinical trial group 1 also known as TEASE-1) was a 24-month, multicenter, double-masked, placebo-controlled trial designed to evaluate the efficacy and safety of daily oral gildeuretinol acetate in slowing the growth of atrophic retinal lesions in Stargardt disease patients. The trial was conducted at multiple sites in the United States (NCT02402660).
Patients 12 years or older, clinically diagnosed with Stargardt disease, with at least one ABCA4 mutation, at least one eye presenting with well-demarcated areas of reduced fundus autofluorescence, and with any visual acuity, were eligible.
Patients were randomized to gildeuretinol acetate 14 mg capsules, gildeuretinol acetate 24 mg capsules, or placebo capsules, to be taken once daily for one year. After one year, 50% of randomly selected patients receiving placebo were crossed over in a 1:1 ratio to gildeuretinol acetate 14 mg capsules or gildeuretinol acetate 24 mg capsules for a second year.
Gildeuretinol acetate and placebo capsules were identical appearing capsules. Patients were advised to avoid vitamin A-containing supplements and liver-based products. Fruits and vegetables contain beta-carotene, not preformed vitamin A, and could be consumed without limitation. Trial visits occurred at 8 weeks and 6, 12, 18, and 24 months following screening and randomization.
Deidentified retinal images of patients not enrolled in the trial were included as a natural history cohort. This natural history cohort comprised patients diagnosed with Stargardt disease of any age, with two or more longitudinal fundus autofluorescence images taken at least four months apart over a maximum period of 2.5 years.
The prespecified primary efficacy endpoint was the growth rate of the square root area of atrophic retinal lesions measured by fundus autofluorescence retinal imaging comparing gildeuretinol versus the untreated arm (placebo combined with natural history). Only well-delineated and homogeneous retinal atrophic lesions≥0.2 mm^2 with a summed area≥0.5 mm^2 were included in the primary analysis.
The primary endpoint analysis used a linear mixed-effect model (LMEM) with repeated measures, conferring a higher power to detect smaller effects. All observed data, including both eyes, were utilized. Treatment duration was computed as a continuous measure for each visit based on years since randomization. Adjustments for baseline retinal atrophy used the baseline atrophic retinal lesion size as a fixed effect in the LMEM. Additional fixed effects included treatment arm, treatment duration, and interaction between the treatment arm and treatment duration. Random effects included patient, eye, grader to adjust for correlation between eyes within a patient, graders' assessment of an eye, and observations of the same eye over time. A random effect slope term was added to the effect of treatment duration. Patients who crossed over to gildeuretinol acetate after year one were included in the untreated arm from baseline to year one, then in the gildeuretinol acetate arm from […] upon crossing over to gildeuretinol acetate. The full analysis set (FAS) comprised all randomized patients who received at least one dose of the study drug.
Growth rates of atrophic retinal lesions were computed as two segmented lines over the 24-month treatment period; the first segment was between 0 and 6 months, and the second was between 6 and 24 months. All available data between 0 and 24 months was used to compute the slope of each segment. The primary efficacy endpoint was the slope of the second segment. No constraints were imposed on the Y-intercept. All growth rates were calculated on a per-year basis.
No imputations were made for missing data because the LMEM yields valid inferences under the assumption of a missing-at-random mechanism. […]

[2] = tested on: asymptomatic Stargardt disease patients; assay: TEASE-3: best-corrected visual acuity (BCVA); details: 14 mg daily
Experimental: (§1) The tolerability and effects of gildeuretinol acetate in Stargardt Disease (Clinical trial group 3 also known as TEASE-3) study was an open-label, multicenter, case control study designed to evaluate the efficacy and safety of gildeuretinol acetate on the progression of Stargardt disease in asymptomatic individuals. The trial was conducted at multiple sites in the United States.
To assess the safety and efficacy of gildeuretinol acetate in preventing vision loss in asymptomatic individuals, gildeuretinol acetate 14 mg capsules was administered to individuals showing early signs of retinal damage while maintaining approximately 20/20 vision and no subjective loss of vision. […] Based on the above family history and clinical observations, the individuals were likely to develop retinal lesions, loss of photoreceptors, drops in retinal sensitivity, loss of visual acuity, indicating the onset of symptoms, i.e. a progression to the symptomatic phase, including vision loss within two years, mirroring the progression observed in their older siblings.
(§2) Patients received gildeuretinol acetate 14 mg capsules, to be taken orally once daily. Trial visits occurred every 6 months approximately following screening and treatment start visits.
(§3) Disease progression was monitored by best-corrected visual acuity (BCVA) reported in number of Early Treatment Diabetic Retinopathy Study (ETDRS) letters, fundus autofluorescence (FAF) imaging, loss of photoreceptors (as measured by the ellipsoid zone band loss) by optical coherence tomography (OCT) according to literature (1-3) and retinal sensitivity by microperimetry.
Measurements from the left and right eye for each patient were averaged for each visit to produce a single statistical unit for both eyes(4). For segmented linear regressions, knot times were selected so that three visits were included in the first segment.

[3] = tested on: asymptomatic Stargardt disease patients; assay: TEASE-3: fundus autofluorescence (FAF) imaging; details: 14 mg daily, two to four years, three patients
Experimental: as §1
(§4) To assess the safety and efficacy of gildeuretinol acetate in preventing vision loss in asymptomatic individuals, gildeuretinol acetate 14 mg capsules was administered to individuals showing early signs of retinal damage while maintaining approximately 20/20 vision and no subjective loss of vision. […]
as §3, with “microperimetry. […]” for “microperimetry.”

[4] = tested on: asymptomatic Stargardt disease patients; assay: TEASE-3: retinal sensitivity by fundus-tracking microperimetry; details: 14 mg daily
Experimental: FIG. 4 is a graph showing mean retinal sensitivity (dB) over time in three asymptomatic Stargardt disease patients taking gildeuretinol acetate 14 mg daily. Lines show mean retinal sensitivity of both eyes. Lines are piecewise linear regressions with a knot time of 12 months. Each symbol represents a retinal sensitivity measurement for each eye. Patient 1 retinal sensitivity was measured with a Nidek MP-1 (Nidek, Gamagori, Japan). Patients 2 and 3 retinal sensitivity was measured with the CenterVue Macular Integrity Assessment or MAIA (CenterVue, Padova, Italy).
as §1, with “States. […]” for “States.”
as §3, with “microperimetry. […]” for “microperimetry.”

TEASE-3: safety = details: 14 mg daily, three patients
Experimental: as §2
Ocular safety was assessed by retinal imaging and ocular exam, which included evaluation of the anterior and posterior segments and the lens. Systemic safety was assessed by physical exam, comprehensive clinical labs (biochemistry, hematology, lipids), and 12-lead ECG.

[5] = tested on: asymptomatic Stargardt disease patients; assay: TEASE-3: disease progression; details: 14 mg daily
Experimental: as §1, §4
as §3, with “microperimetry. […]” for “microperimetry.”

With `CC(=O)OC/C=C(C)/C=C/C=C(C)/C=C/C1=C(C)CCCC1(C)C` [gildeuretinol acetate, C20-D3-retinol acetate] the “effect on retinal degeneration / growth of atrophic retinal lesions (in words)” value [1] was “met its prespecified primary efficacy endpoint, slowing the mean growth rate of atrophic retinal lesions relative to placebo and natural history; also recorded: slowed the expansion of retinal atrophic lesions; also recorded: slowed the progression of retinal degeneration; also recorded: slows retinal degeneration”, the “effect on retinal degeneration / growth of atrophic retinal lesions (in words)” value ([1]; listed as Gildeuretinol acetate) was “met its prespecified primary efficacy endpoint, slowing the mean growth rate of atrophic retinal lesions” and the “Percentage Slowing of Atrophic Retinal Lesion Growth Rate With Gildeuretinol Acetate” value (from here on “Percentage Slowing”) ([1]; crossover patients: 12 months placebo vs. 12 months treatment) was 21%. The “estimated treatment effect (slowing of atrophic retinal lesion growth)” value ([1]; depending on the calculation method) was 20% to 30, the “Percentage Slowing” value ([1]; excluding 2 natural history cases < 18 years old, 9 natural histories > 60 years old) was 21% and the “Percentage Slowing” value ([1]; excluding 3 randomized patients with one confirmed mutation) was 20%. The “Percentage Slowing” value ([1]; excluding 13 natural history cases without any confirmed ABCA4 mutations and 6 with one confirmed mutation) was 20%, the “Percentage Slowing” value ([1]; excluding 16 natural histories with only two follow up time points) was 20% and the “Percentage Slowing” value ([1]; excluding natural history, randomized patients only, one slope (mm^2)) was 30%. The “Percentage Slowing” value ([1]; excluding natural history, randomized patients only, two slopes (mm^2)) was 23%, the “growth rate of atrophic retinal lesions” value ([1]; gildeuretinol acetate arm (14 mg and 24 mg pooled), square root area, slope 6 to 24 months) was 0.19 mm/year and the “Percentage Slowing” value ([1]; using a single-slope from 0 to 24 months (mm^2)) was 31%. For the same compound, the “Percentage Slowing” value ([1]; using untransformed areas of atrophic lesions (mm^2)) was 28%, the “difference in growth rate of atrophic retinal lesions versus control” value ([1]; vs placebo + natural history, 95% CI 0.03 to 0.07) was 0.05 mm/year and the “BCVA of treated siblings” value ([2]; 2 to 4 years) was 88±4 ETDRS letters. The “average improvement of BCVA versus untreated siblings” value ([2]; age-matched untreated siblings) was 22±13 letters, the “average improvement of BCVA versus untreated siblings, lines of vision on the ETDRS eyechart” value ([2]; age-matched untreated siblings) was “four” and the “changes by FAF (flecks, autofluorescence, atrophy)” value [3] was “none of the three treated asymptomatic Stargardt disease patients exhibited changes by FAF; also recorded: absence of FAF changes in all three Stargardt disease patients”. For the same compound, the “rate of change of mean retinal sensitivity” value ([4]; first year of treatment) was −3.1±1.5 dB/year, the “rate of change of mean retinal sensitivity (improvement)” value ([4]; years following the first year) was “+0.93±0.7 dB/year” and the “adverse reactions linked to excessive or insufficient vitamin A” value (TEASE-3: safety) was “None of the three treated Stargardt disease asymptomatic patients exhibited adverse reactions”. For the same compound, the “disease progression / vision loss during treatment (in words)” value ([5]; 2 to 4 years, asymptomatic patients) was “arrested loss of vision and retinal pathology; also recorded: no observable disease progression; also recorded: effectively prevented vision loss and further retinal damage; also recorded: no vision loss or disease progression” and the “photoreceptor and retinal sensitivity outcomes with prolonged treatment” value ([5]; prolonged treatment) was “trended toward an improvement”.
